Consider 6 compounds from ChEMBL document CHEMBL2321799 (J Med Chem, 2013).

By IC50 is commonly meant the concentration that inhibits the measured activity by half.

Molecules are shown by their SMILES. Bounds are passed on as bounds.

The target in experiment [1] is T1, Ephrin type-A receptor 2 (Homo sapiens, UniProt P29317). The experiment is described as follows: Antagonist activity at EphA2 in human PC3 cells assessed as inhibition of ephrin-A1-Fc-stimulated EphA2 phosphorylation pretreated for 20 mins by sandwich ELISA. It is filed as cell-based, PC-3. In general terms: An ELISA detects its analyte on a solid surface through an enzyme-linked reagent.
T1 sequence (P29317 whole entry): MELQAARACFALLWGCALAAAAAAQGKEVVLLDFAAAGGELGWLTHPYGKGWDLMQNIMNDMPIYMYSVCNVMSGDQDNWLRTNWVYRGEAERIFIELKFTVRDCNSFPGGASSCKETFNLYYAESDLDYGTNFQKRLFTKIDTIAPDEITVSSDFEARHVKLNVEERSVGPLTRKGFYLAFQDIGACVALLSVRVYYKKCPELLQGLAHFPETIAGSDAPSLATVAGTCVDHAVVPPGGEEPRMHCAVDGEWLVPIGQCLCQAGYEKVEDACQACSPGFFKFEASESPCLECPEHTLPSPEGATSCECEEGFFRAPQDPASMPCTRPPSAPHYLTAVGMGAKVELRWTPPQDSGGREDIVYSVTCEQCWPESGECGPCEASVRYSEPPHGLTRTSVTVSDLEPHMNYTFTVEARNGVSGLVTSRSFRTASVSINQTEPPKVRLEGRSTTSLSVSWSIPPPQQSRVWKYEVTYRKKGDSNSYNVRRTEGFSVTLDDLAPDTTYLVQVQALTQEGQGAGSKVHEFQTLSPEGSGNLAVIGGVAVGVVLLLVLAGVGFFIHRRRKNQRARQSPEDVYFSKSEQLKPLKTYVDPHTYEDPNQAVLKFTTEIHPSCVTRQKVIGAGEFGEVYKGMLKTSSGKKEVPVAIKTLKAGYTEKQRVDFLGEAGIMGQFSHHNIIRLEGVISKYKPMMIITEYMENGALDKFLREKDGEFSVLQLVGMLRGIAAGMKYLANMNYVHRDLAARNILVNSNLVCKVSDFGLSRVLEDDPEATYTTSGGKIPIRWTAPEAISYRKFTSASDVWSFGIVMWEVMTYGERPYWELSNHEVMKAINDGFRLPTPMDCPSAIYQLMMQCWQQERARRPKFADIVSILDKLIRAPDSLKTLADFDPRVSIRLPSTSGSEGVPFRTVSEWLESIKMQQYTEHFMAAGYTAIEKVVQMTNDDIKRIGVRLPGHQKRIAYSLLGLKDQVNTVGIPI

Experiment [2] concerns the target T1, Ephrin type-A receptor 2. The experiment is described as follows: Inhibition of ephrin-A1-Fc binding to EphA2-Fc receptor (unknown origin) after 1 hr by ELISA.

Turning to `C[C@H](CCC(=O)NCC(=O)O)[C@H]1CC[C@H]2[C@@H]3CC[C@@H]4C[C@H](O)CC[C@]4(C)[C@H]3CC[C@]12C` [LITHOGLYCOCHOLATE], the IC50 on Ephrin type-A receptor 2 [1] is 138 µM; on Ephrin type-A receptor 2 [2], 49 µM. With `C[C@H](CCC(=O)N[C@H](CC(N)=O)C(=O)O)[C@H]1CC[C@H]2[C@@H]3CC[C@@H]4C[C@H](O)CC[C@]4(C)[C@H]3CC[C@]12C`, the IC50 at Ephrin type-A receptor 2 [2] is > 316 µM.

As to `C[C@H](CCC(=O)N[C@@H](CC(N)=O)C(=O)O)[C@H]1CC[C@H]2[C@@H]3CC[C@@H]4C[C@H](O)CC[C@]4(C)[C@H]3CC[C@]12C`, the half-maximal inhibitory concentration (IC50) on Ephrin type-A receptor 2 [2] is > 316 µM. With `C[C@H](CCC(=O)N[C@@H](CC(=O)O)C(=O)O)[C@H]1CC[C@H]2[C@@H]3CC[C@@H]4C[C@H](O)CC[C@]4(C)[C@H]3CC[C@]12C`, the half-inhibitory concentration (IC50) at Ephrin type-A receptor 2 [2] was > 316 µM. The same measure, in the same setting: for `CC(=O)CNC(=O)CC[C@@H](C)[C@H]1CC[C@H]2[C@@H]3CC[C@@H]4C[C@H](O)CC[C@]4(C)[C@H]3CC[C@]12C` the value was > 316 µM; for `C[C@H](CCC(=O)N[C@H](CC(=O)O)C(=O)O)[C@H]1CC[C@H]2[C@@H]3CC[C@@H]4C[C@H](O)CC[C@]4(C)[C@H]3CC[C@]12C`, > 316 µM.
